From PMC12637020, “Synthesis and biological evaluation of novel hydrazone derivatives for the treatment of Alzheimer's disease” (RSC Advances, 2025)

Legend:
[1] = test system: NIH/3T3 mouse embryonic fibroblast cell line; assay: MTT cytotoxicity test in NIH/3T3 cell line; type: cell-based; settings: for Selectivity index: IC50 (NIH3T3)/IC50 (AChE); for IC50: Mus musculus, MTT, NIH3T3 fibroblast cells
Method: The IC50 values of the compounds were determined by nonlinear regression analysis, allowing the cytotoxic properties of the compounds to be interpreted. The molecules D1f and D1c were active against AChE enzymes.
For cytotoxicity tests, the NIH/3T3 mouse embryonic fibroblast cell line (ATCC® CRL-1658TM, London, UK) was employed. The supplier's recommendation served as the basis for the NIH/3T3 cells' incubation time. In each well of the 96-well plates, […] NIH/3T3 cells were planted. The MTT assay was performed in compliance with the previously mentioned standards.[29,35]

BChE enzyme = BChE enzyme (Homo sapiens, UniProt P06276); assay: biochemical; settings: for inhibition at 1000 µM: read-out: BChE% inhibition 10^−3 M; for inhibition at 100 µM: read-out: BChE% inhibition 10^−4 M
Chain of BChE enzyme (P06276 29-602, species assumed): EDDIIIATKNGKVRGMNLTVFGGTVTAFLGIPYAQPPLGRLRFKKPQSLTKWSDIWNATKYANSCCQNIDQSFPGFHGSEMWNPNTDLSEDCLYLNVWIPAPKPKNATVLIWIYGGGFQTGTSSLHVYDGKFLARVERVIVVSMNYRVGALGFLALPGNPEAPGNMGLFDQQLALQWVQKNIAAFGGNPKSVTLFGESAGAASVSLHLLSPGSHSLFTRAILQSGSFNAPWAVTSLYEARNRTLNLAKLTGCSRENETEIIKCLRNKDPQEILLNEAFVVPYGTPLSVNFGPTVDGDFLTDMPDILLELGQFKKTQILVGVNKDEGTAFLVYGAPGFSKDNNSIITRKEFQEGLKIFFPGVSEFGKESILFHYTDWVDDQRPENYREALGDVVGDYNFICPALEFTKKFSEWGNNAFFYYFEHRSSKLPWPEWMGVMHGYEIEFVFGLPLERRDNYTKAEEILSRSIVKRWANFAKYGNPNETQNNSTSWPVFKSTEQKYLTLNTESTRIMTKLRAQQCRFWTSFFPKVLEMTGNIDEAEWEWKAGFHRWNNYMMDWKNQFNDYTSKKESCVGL
From the text: (§1) The assay was completed in two steps.
(§2) The potential inhibitory effects of the obtained molecules on the AChE and BChE enzymes was examined using a variation of the Ellman method.[31,33,41–43] Distilled water from the Millipore/Milli-Q purification apparatus was utilized at every stage of the biological activity investigations during the evaluation process. In less than a week, all the solutions required for the biological investigation were meticulously prepared from scratch. A “BioTek-Precision Power (United States)” robotic pipetting system was utilized to distribute the prepared solutions and apply the test compounds and enzyme–substrate solutions to 96-well plates. The “BioTek-Synergy H1 Microplate Reader (United States)” was employed to establish and follow the enzyme protocol for spectrophotometric measurements. Solutions of the compounds were prepared at two different concentrations, 10^−3 M and 10^−4 M, using dimethylsulfoxide (DMSO) as 2% solution, and these were used in biological activity studies.

AChE enzyme = AChE enzyme (Homo sapiens, UniProt P22303); assay: biochemical; type: biochemical; settings: for inhibitory activity: at concentrations of 1000 and 100 µM; for inhibition at 1000 µM: read-out: AChE% inhibition 10^−3 M; for inhibition at 100 µM: read-out: AChE% inhibition 10^−4 M; for IC50: tested at 10 to 0.001 µM
Chain of AChE enzyme (P22303 32-614): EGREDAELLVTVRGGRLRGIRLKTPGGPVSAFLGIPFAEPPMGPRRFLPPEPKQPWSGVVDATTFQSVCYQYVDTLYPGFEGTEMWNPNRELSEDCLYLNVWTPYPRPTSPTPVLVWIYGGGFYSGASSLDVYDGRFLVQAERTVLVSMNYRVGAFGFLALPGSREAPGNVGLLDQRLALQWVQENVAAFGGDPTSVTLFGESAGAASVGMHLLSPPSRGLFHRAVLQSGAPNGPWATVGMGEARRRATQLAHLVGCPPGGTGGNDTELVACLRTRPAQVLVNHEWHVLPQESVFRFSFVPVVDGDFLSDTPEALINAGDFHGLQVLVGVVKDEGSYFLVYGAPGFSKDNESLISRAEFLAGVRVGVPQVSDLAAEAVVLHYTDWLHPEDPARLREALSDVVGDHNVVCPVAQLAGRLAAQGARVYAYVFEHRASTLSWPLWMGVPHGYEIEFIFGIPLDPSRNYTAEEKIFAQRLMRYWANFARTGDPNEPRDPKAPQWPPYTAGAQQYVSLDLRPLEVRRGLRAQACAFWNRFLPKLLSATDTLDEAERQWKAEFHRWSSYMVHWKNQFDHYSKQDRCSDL
From the text: as §1, §2

| Compound | Selectivity index [1] | IC50 [1] [µM] | IC50 (BChE enzyme) [µM] | inhibition at 1000 µM (BChE enzyme) [%] | inhibition at 100 µM (BChE enzyme) [%] | inhibitory activity (AChE enzyme) | inhibition at 1000 µM (AChE enzyme) [%] | inhibition at 100 µM (AChE enzyme) [%] | IC50 (AChE enzyme) [µM] |
| --- | --- | --- | --- | --- | --- | --- | --- | --- | --- |
| CC(=NN=c1scc(-c2ccc([N+](=O)[O-])cc2)n1C)c1ccc(N2CCCCC2)cc1 [D1c, 3-Methyl-4-(4-nitrophenyl)-2-((1-(4-(piperidin-1-yl)phenyl)ethylidene)hydrazineylidene)-2,3-dihydrothiazole] | 8.310 | 2.41 ± 0.109 | > 1000 | 24.4 ± 0.941 | 21.6 ± 0.852 | more than 50% | 94.6 ± 2.35 | 90.3 ± 1.53 | 0.29 ± 0.01 |
| CC(=NN=c1scc(-c2ccc(C#N)cc2)n1C)c1ccc(N2CCCCC2)cc1 [D1f, 4-(-3-Methyl-2-((1-(4-(piperidin-1-yl)phenyl)ethylidene)hydrazineylidene)-2,3-dihydrothiazol-4-yl)benzonitrile] | 85.231 | 3.32 ± 0.155 | > 1000 | 29 ± 1.24 | 17 ± 0.784 | more than 50% | 96.8 ± 2.09 | 91.2 ± 2.43 | 0.039 ± 0.001 |
